Assay results as given in US20250003953A1, “Methods and Model Systems for Assessing Therapeutic Properties of Candidate Agents and Related Computer Readable Media and Systems” (The Regents of the University of California, priority 2021, published 2025).

Tests used:
KRAS.G12V cell line H441 = assay: Lipid peroxidation by KRAS inhibitors in non-KRAS.G12C line; type: cell-based, human
Protocol: FIG. 7B plots gene expression of anti-ferroptotic genes for each cell line in response to increasing ARS1620 dosage.
Using a lipid peroxidation live cell probe, lipid peroxidation—one of the hallmark phenotypes of ferroptosis—was measured in response to ARS-1620 treatment.

[1] = tested on: KRAS.G12C cell lines in a cell pool; assay: GENEVA pool gene set expression after drug, in vitro; type: cell-based, human; details: post-drug treatment
From the text: The GENEVA datasets were compared where GENEVA pools were drugged with the KRAS.G12C inhibitor ARS1620, conducted both in vitro and in vivo. Specifically, the in vitro data were compared against the in vivo data to look for differences and similarities attributable to the context of the model systems used. […] As a validation study, a combination therapy multi-arm in vivo mouse study was designed to test the efficacy of an EMT inhibitor, Galunisertib in combination with ARS1620.
For in vivo and in vitro datasets, we combined the median z score results determined in Example 8 and t-test results, respectively, were combined on a paired geneset by geneset basis. The combined zscore results table from both in vivo and in vitro was then used to calculate an “in vivo Specificity Score” as follows:
For each geneset, “in vivo Specificity Score”=[(in vivo median zscore)−(in vitro median zscore)]/mean([log 10 (in vivo pvalue), log 10 (in vitro pvalue)]

For `C=CC(=O)N1CCN(c2ncnc3c(F)c(-c4c(O)cccc4F)c(Cl)cc23)CC1` [ARS1620], the lipid peroxidation (KRAS.G12V cell line H441) was “this effect was significantly muted” and the “endothelial-mesenchymal transition hallmark gene expression signature” value [1] was “showed no difference in vitro”.
